Test results from ChEMBL document CHEMBL3108669, “Modulation of reactive oxygen species photogeneration of bacteriopheophorbide a derivatives by exocyclic E-ring opening and charge modifications” (J Med Chem, 2014).

What was measured:
Assay type in all cases: physicochemical; call rule not given here
[1] = Induction of ROS generation in MeOH/PBS solution by SOSG-based fluorescence assay; conditions: buffer
[2] = Induction of ROS generation in water/cremophor/DMF solution by AUR-based fluorescence assay; conditions: buffer
[3] = Induction of ROS generation in MeOH/PBS solution by AUR-based fluorescence assay; conditions: buffer
[4] = Induction of ROS generation in water/cremophor/DMF solution by SOSG-based fluorescence assay; conditions: buffer
[5] = Induction of ROS generation in RPMI-1640 cell culture media/DMSO/cremophor solution by AUR-based fluorescence assay
[6] = Induction of ROS generation in RPMI-1640 cell culture media/DMSO/cremophor solution by SOSG-based fluorescence assay

| SMILES | Activity [1] | Activity [2] | Activity [3] | Activity [4] | Activity [5] | Activity [6] |
| --- | --- | --- | --- | --- | --- | --- |
| CC[C@H]1c2cc3[nH]c4c(c3C)C(=O)[C@H](C(=O)OC)c4c3nc(cc4[nH]c(cc(n2)[C@@H]1C)c(C(C)=O)c4C)[C@@H](C)[C@@H]3CCC(=O)NCCS(=O)(=O)O | Active | Active | Active | Active | Active | Active |
| CC[C@H]1c2cc3[nH]c(c(CC(=O)OC)c4nc(cc5[nH]c(cc(n2)[C@@H]1C)c(C(C)=O)c5C)[C@@H](C)[C@@H]4CCC(=O)NCCS(=O)(=O)O)c(C(=O)NCCS(=O)(=O)O)c3C | Active | Active | Active | Active | Active | Active |
| CC[C@H]1c2cc3[nH]c4c(c3C)C(=O)[C@H](C(=O)OC)c4c3nc(cc4[nH]c(cc(n2)[C@@H]1C)c(C(C)=O)c4C)[C@@H](C)[C@@H]3CCC(=O)OCC[N+](C)(C)C | Active | Active | Active | Active | Active | Active |
| CC[C@H]1c2cc3[nH]c(c(CC(=O)OC)c4nc(cc5[nH]c(cc(n2)[C@@H]1C)c(C(C)=O)c5C)[C@@H](C)[C@@H]4CCC(=O)OC)c(C(=O)NCCS(=O)(=O)O)c3C | Active | Active | Active | Active | Active | Active |
| CC[C@H]1c2cc3[nH]c(c(CC(=O)OC)c4nc(cc5[nH]c(cc(n2)[C@@H]1C)c(C(C)=O)c5C)[C@@H](C)[C@@H]4CCC(=O)O)c(C(=O)NCCS(=O)(=O)O)c3C | Active | Active | Active | Active | Active | Active |

Continued, values first:

| Activity [1] | Activity [2] | Activity [3] | Activity [4] | Activity [5] | Activity [6] | SMILES |
| --- | --- | --- | --- | --- | --- | --- |
| Active | Active | Active | Active | Active | Active | CC[C@H]1c2cc3[nH]c(c(CC(=O)OC)c4nc(cc5[nH]c(cc(n2)[C@@H]1C)c(C(C)=O)c5C)[C@@H](C)[C@@H]4CCC(=O)OCC[N+](C)(C)C)c(C(=O)NCCS(=O)(=O)O)c3C |
| Active | Active | Active | Active | Active | Active | CC[C@H]1c2cc3[nH]c4c(c3C)C(=O)[C@H](C(=O)OC)c4c3nc(cc4[nH]c(cc(n2)[C@@H]1C)c(C(C)=O)c4C)[C@@H](C)[C@@H]3CCC(=O)OC |
| Active | Active | Active | Active | Active | Active | CC[C@H]1c2cc3[nH]c4c(c3C)C(=O)[C@H](C(=O)OC)c4c3nc(cc4[nH]c(cc(n2)[C@@H]1C)c(C(C)=O)c4C)[C@@H](C)[C@@H]3CCC(=O)O |
